In one assay the target is PLK4 (h) (Homo sapiens, UniProt O00444). Nature of the assay: PLK-4 human kinase inhibition, scintillation proximity assay (SPA). It is filed as biochemical. Conditions: read-out: PLK4 pIC50 (converted). For orientation: SPA uses beads or plates that emit light when radiolabelled molecules are held near them.
The next assay has as its system U87-MG. Nature of the assay: Cellular proliferation assay (Alamar blue), U87-MG. It is filed as cell-based. Conditions: Homo sapiens, U-87 MG; 10% FCS; 72 hours with compound; Alamar blue 6 h; read-out: U87-MG (cellular proliferation assay, Table 4) (converted). The method, boiled down: (§1)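 Proliferation in 10% FCS over a 72 h compound treatment, read as viable cell number by Alamar blue fluorescence and calculated against untreated control cells. Dye time varied by line: 6 h U87-MG, 4 h HCT-116, 24 h A2780 and MDA-MB-231.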

Another assay relates to MDA-MB-231. Briefly: Cellular proliferation assay (Alamar blue), MDA-MB-231. It is filed as cell-based. Conditions: Homo sapiens, 10% FCS, 72 hours with compound, Alamar blue 24 h, read-out: MDA/MB231 (cellular proliferation assay, Table 4) (converted). The method, boiled down:
as §1

The next assay has as its target PLK1 T210D (h) (Homo sapiens, UniProt P53350, T210D). Nature of the assay: PLK1 human kinase inhibition, SPA. It is filed as biochemical. Conditions: read-out: PLK1 pIC50 (converted). The method, boiled down: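 Radiometric SPA with PLK1 T210D (0.125 ng/ml) in 50 mM Hepes pH 8.0, 2 mM MnCl2, 1 mM DTT, 2 μM biotinylated peptide, 0.1 μM ATP plus 2 nM [γ-33P]ATP. 40 min at room temperature, EDTA stop. Phosphorylated substrate captured on streptavidin PVT beads, scintillation imaged.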

In another assay the test system is A2780. Briefly: Cellular proliferation assay (Alamar blue), A2780. Conditions: Homo sapiens, 10% FCS, 72 hours with compound, Alamar blue 24 h, read-out: A2780 (cellular proliferation assay, Table 4) (converted). It is filed as cell-based. The method, boiled down: as §1

Sequence of PLK4 (h) (O00444 whole entry): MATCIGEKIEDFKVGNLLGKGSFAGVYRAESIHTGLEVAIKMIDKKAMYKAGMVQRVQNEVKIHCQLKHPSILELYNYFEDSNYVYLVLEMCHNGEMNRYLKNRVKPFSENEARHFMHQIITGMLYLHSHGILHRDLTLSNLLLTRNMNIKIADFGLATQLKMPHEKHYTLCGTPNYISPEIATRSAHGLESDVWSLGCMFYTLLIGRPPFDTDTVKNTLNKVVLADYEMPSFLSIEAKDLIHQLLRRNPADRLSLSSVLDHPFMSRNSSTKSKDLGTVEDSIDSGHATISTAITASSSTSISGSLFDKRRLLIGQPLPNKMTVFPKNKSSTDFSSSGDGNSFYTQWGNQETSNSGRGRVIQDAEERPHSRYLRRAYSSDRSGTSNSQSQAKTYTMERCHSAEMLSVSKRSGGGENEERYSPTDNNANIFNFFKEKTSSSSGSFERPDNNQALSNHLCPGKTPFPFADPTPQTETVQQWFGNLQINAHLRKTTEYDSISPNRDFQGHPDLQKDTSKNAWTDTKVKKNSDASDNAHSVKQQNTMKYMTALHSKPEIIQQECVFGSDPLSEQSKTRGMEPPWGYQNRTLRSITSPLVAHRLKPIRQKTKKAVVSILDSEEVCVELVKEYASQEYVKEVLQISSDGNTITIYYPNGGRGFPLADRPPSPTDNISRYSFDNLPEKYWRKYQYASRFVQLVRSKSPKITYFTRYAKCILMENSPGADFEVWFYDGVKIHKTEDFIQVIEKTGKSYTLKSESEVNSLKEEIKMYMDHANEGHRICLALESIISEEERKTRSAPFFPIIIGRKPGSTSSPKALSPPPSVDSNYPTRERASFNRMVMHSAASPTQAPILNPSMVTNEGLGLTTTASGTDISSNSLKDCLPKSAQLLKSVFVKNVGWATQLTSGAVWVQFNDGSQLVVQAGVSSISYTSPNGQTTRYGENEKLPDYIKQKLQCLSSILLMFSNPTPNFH
Sequence of PLK1 T210D (h) (P53350 whole entry T210D): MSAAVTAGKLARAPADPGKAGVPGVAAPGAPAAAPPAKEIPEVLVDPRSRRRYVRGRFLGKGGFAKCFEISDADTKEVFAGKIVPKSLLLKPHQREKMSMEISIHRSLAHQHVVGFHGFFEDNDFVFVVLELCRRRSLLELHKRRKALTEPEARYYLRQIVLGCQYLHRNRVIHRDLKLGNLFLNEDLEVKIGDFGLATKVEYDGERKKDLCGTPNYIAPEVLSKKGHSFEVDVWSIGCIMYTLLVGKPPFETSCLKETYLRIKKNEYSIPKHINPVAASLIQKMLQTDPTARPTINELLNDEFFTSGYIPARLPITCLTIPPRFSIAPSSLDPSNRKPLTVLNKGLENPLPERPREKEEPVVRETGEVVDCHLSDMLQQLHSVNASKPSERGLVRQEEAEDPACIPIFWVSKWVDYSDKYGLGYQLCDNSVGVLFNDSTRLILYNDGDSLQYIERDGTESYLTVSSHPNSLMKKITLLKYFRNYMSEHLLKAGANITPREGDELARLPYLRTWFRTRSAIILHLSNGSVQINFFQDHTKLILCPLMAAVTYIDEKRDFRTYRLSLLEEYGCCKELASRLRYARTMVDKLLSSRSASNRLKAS

For the molecule `CN1CCCNC(=O)[C@H](CO)NCc2cccc(c2)Nc2nccc(n2)-c2ccc(cc2)C1` [Compound 113], the IC50 is 1.17 µM at PLK4 (h); above 10 µM in the assay with U87-MG; above 10 µM in the assay on MDA-MB-231; above 10 µM on PLK1 T210D (h); above 10 µM with A2780.

With `COc1ccc2cc1CN(C)CCCNC(=O)CN1CCN(CC1)Cc1cc(cc(N3CCOCC3)c1)Nc1nccc-2n1` [Compound 141], the IC50 at PLK4 (h) is 3.02 µM; in the assay on U87-MG, 5.89 µM; in the assay on MDA-MB-231, above 10 µM; at PLK1 T210D (h) it was above 10 µM; with A2780, 8.91 µM.

In the case of `C[C@@H]1NCc2cc(ccc2N2CCOCC2)Nc2nccc(n2)-c2ccc(cc2)OCCCNC1=O` [Compound 5], the IC50 at PLK4 (h) was 0.162 µM; with U87-MG, above 10 µM; in the assay on MDA-MB-231, above 10 µM; on PLK1 T210D (h) it was above 10 µM; in the assay on A2780 it was above 10 µM.

In the case of `COc1ccc2cc1CN(C)CCCNC(=O)CN1CCN(CC1)Cc1cc(cc(NC(C)C)c1)Nc1nccc-2n1` [Compound 130], the IC50 is 1.23 µM at PLK4 (h); above 10 µM in the assay on U87-MG; above 10 µM in the assay on MDA-MB-231; above 10 µM at PLK1 T210D (h); above 10 µM with A2780.

With `COc1ccc2cc1CN(C)CCNC(=O)C1CCN(CC1)Cc1cccc(c1)Nc1nccc-2n1` [Compound 83], the IC50 on PLK4 (h), in the assay on U87-MG, in the assay on MDA-MB-231, at PLK1 T210D (h) and in the assay on A2780 was above 10 µM throughout.

`O=C(NC1CCCCC1)c1ccc2cc1CN1CCC[C@H]1C(=O)NCc1cccc(c1)-c1ccnc(n1)N2` [Compound 41]: the IC50 at PLK4 (h) was 0.347 µM; in the assay with U87-MG it was 2.29 µM; in the assay on MDA-MB-231, above 10 µM; at PLK1 T210D (h) it was above 10 µM; in the assay with A2780, above 10 µM.

`O=C(NC1CCOCC1)c1ccc2cc1CN1CCC[C@H]1C(=O)NCc1cccc(c1)-c1ccnc(n1)N2` [Compound 46]: the IC50 at PLK4 (h) was 0.427 µM; with U87-MG, above 10 µM; in the assay with MDA-MB-231, above 10 µM; at PLK1 T210D (h), above 10 µM; in the assay with A2780, 5.5 µM.

`CN1CCCNC(=O)[C@@H]2CCCN2Cc2cc(cc(N3CCOCC3)c2)Nc2nccc(n2)-c2ccc(cc2)C1` [Compound 16]: the IC50 is 0.617 µM on PLK4 (h); 8.13 µM in the assay on U87-MG; above 10 µM in the assay with MDA-MB-231; above 10 µM on PLK1 T210D (h); 9.55 µM with A2780.

As for `C[C@H]1NCc2cc(ccc2N2CCOCC2)Nc2nccc(n2)-c2ccc(cc2)OCCCNC1=O` [Compound 86], the IC50 at PLK4 (h) is 0.209 µM; in the assay with U87-MG, above 10 µM; with MDA-MB-231, above 10 µM; at PLK1 T210D (h) it was above 10 µM; in the assay on A2780 it was above 10 µM.

For `COc1ccc2cc1CN(C)CCCNC(=O)[C@@H]1CCCN1Cc1cccc(c1)Nc1nccc-2n1` [Compound 180], the IC50 at PLK4 (h), in the assay with U87-MG, in the assay with MDA-MB-231, on PLK1 T210D (h) and in the assay with A2780 was above 10 µM throughout.

For the molecule `O=C1NCCCOc2cccc(c2)-c2ccnc(n2)Nc2ccc(N3CCOCC3)c(c2)CN2CCC[C@@H]12` [Compound 96], the IC50 is 0.398 µM on PLK4 (h); 4.17 µM in the assay on U87-MG; above 10 µM in the assay on MDA-MB-231; above 10 µM at PLK1 T210D (h); 6.46 µM in the assay with A2780.

In the case of `COCCNCc1cc2cc(c1)Nc1nccc(n1)-c1cccc(c1)CNC(=O)[C@@H]1CCCN1C2` [Compound 33], the IC50 is 0.178 µM at PLK4 (h); 0.0513 µM in the assay on U87-MG; 0.832 µM with MDA-MB-231; above 10 µM at PLK1 T210D (h); 0.224 µM with A2780.

`O=C1NCCNCc2ccc(cc2)-c2ccnc(n2)Nc2ccc(N3CCOCC3)c(c2)CN[C@H]1CO` [Compound 115]: the IC50 on PLK4 (h) was 1.35 µM; in the assay on U87-MG, above 10 µM; with MDA-MB-231, above 10 µM; on PLK1 T210D (h) it was above 10 µM; in the assay with A2780, above 10 µM.

`O=C1CN2CCN(CC2)Cc2cc(ccc2N2CCOCC2)Nc2nccc(n2)-c2ccc(cc2)OCCN1` [Compound 9]: the IC50 was 0.417 µM on PLK4 (h); 1.55 µM in the assay on U87-MG; above 10 µM with MDA-MB-231; above 10 µM at PLK1 T210D (h); above 10 µM with A2780.

On to `CN1CCNC(=O)[C@@H]2CCCN2Cc2cc(Br)cc(c2)Nc2nccc(n2)-c2ccc(cc2)C1` [Compound 155], for which the IC50 on PLK4 (h) is 0.832 µM; in the assay on U87-MG, above 10 µM; in the assay with MDA-MB-231, above 10 µM; at PLK1 T210D (h), above 10 µM; in the assay with A2780 it was above 10 µM.

With `COc1ccc2cc1CN(C)CCCNC(=O)C1CCN(CC1)Cc1cc(cc(N3CCOCC3)c1)Nc1nccc-2n1` [Compound 80], the IC50 is 5.37 µM at PLK4 (h); above 10 µM with U87-MG; above 10 µM with MDA-MB-231; above 10 µM at PLK1 T210D (h); above 10 µM in the assay with A2780.

As to `COc1ccc2cc1CN(C)CCNC(=O)[C@@H]1CCCN1Cc1cccc(c1)Nc1nccc-2n1` [Compound 175], the IC50 was 8.51 µM on PLK4 (h); above 10 µM in the assay on U87-MG; above 10 µM in the assay on MDA-MB-231; above 10 µM at PLK1 T210D (h); above 10 µM with A2780.

Take `O=C1NCc2cccc(c2)-c2ccnc(n2)Nc2cc(CNC3CCOCC3)cc(c2)CN2CCC[C@@H]12` [Compound 29]: the IC50 was 0.162 µM on PLK4 (h); 0.457 µM in the assay on U87-MG; 2.09 µM in the assay on MDA-MB-231; above 10 µM on PLK1 T210D (h); 0.708 µM in the assay with A2780.

Turning to `O=C1NCc2cccc(c2)-c2ccnc(n2)Nc2ccc(N3CCOCC3)c(c2)CN2CCC[C@@H]12` [Compound 1], the IC50 at PLK4 (h) is 0.0479 µM; with U87-MG it was 6.76 µM; in the assay with MDA-MB-231, above 10 µM; at PLK1 T210D (h) it was above 10 µM; in the assay on A2780, 2.34 µM.

On to `COc1ccc2cc1CNCCNC(=O)[C@@H]1C[C@@H](O)CN1Cc1cc(ccc1N1CCOCC1)Nc1nccc-2n1` [Compound 177], for which the IC50 at PLK4 (h), in the assay with U87-MG, with MDA-MB-231, on PLK1 T210D (h) and in the assay with A2780 was above 10 µM each time.

As for `COc1ccc2cc1CNCCNC(=O)CN1CCN(CC1)Cc1cc(ccc1N1CCOCC1)Nc1nccc-2n1` [Compound 126], the IC50 on PLK4 (h) was 0.813 µM; in the assay on U87-MG, above 10 µM; in the assay with MDA-MB-231, above 10 µM; at PLK1 T210D (h), above 10 µM; with A2780, 5.37 µM.

Turning to `COc1ccc2cc1CNCCNC(=O)[C@@H]1CCCN1Cc1cc(ccc1N1CCOCC1)Nc1nccc-2n1` [Compound 178], the IC50 on PLK4 (h) is above 10 µM; with U87-MG it was 8.91 µM; with MDA-MB-231, above 10 µM; on PLK1 T210D (h), above 10 µM; with A2780, above 10 µM.

In the case of `O=C1NCc2cccc(c2)-c2ccnc(n2)Nc2cc(CN3CCOCC3)cc(c2)CN2CCC[C@@H]12` [Compound 22], the IC50 on PLK4 (h) is 0.0692 µM; with U87-MG it was 0.234 µM; in the assay on MDA-MB-231, 1.7 µM; at PLK1 T210D (h), above 10 µM; in the assay on A2780, 0.437 µM.

As to `CN1CCCNC(=O)C2CCN(CC2)Cc2cc(cc(N3CCOCC3)c2)Nc2nccc(n2)-c2ccc(cc2)C1` [Compound 72], the IC50 is 2.34 µM at PLK4 (h); 6.17 µM in the assay on U87-MG; above 10 µM with MDA-MB-231; above 10 µM on PLK1 T210D (h); above 10 µM with A2780.

For the molecule `COc1ccc2cc1CN(C)CCCNC(=O)CN1CCN(CC1)Cc1cccc(c1)Nc1nccc-2n1` [Compound 146], the IC50 was 6.76 µM at PLK4 (h); above 10 µM with U87-MG; above 10 µM in the assay on MDA-MB-231; above 10 µM at PLK1 T210D (h); above 10 µM in the assay on A2780.

Take `O=C1NCCCc2cc(ccn2)-c2ccnc(n2)Nc2ccc(N3CCOCC3)c(c2)CN2CCCC12` (stereo not shown) [Compound 48]: the IC50 at PLK4 (h) is 0.661 µM; in the assay on U87-MG, above 10 µM; in the assay on MDA-MB-231, above 10 µM; on PLK1 T210D (h) it was above 10 µM; in the assay on A2780, above 10 µM.

In the case of `COc1ccc2cc1CN(C)CCCNC(=O)C1CCN(CC1)Cc1cc(cc(NC(C)C)c1)Nc1nccc-2n1` [Compound 70], the IC50 at PLK4 (h) was 1.58 µM; in the assay with U87-MG, 9.12 µM; in the assay on MDA-MB-231, above 10 µM; on PLK1 T210D (h), above 10 µM; in the assay with A2780, above 10 µM.

As to `CN1CCNC(=O)CN2CCN(CC2)Cc2cc(cc(N3CCOCC3)c2)Nc2nccc(n2)-c2ccc(cc2)C1` [Compound 135], the IC50 was 1.74 µM at PLK4 (h); 9.77 µM with U87-MG; above 10 µM in the assay with MDA-MB-231; above 10 µM at PLK1 T210D (h); above 10 µM with A2780.

`CN1CCNC(=O)C2CCN(CC2)Cc2cc(Br)cc(c2)Nc2nccc(n2)-c2ccc(cc2)C1` [Compound 60]: the IC50 is 0.537 µM at PLK4 (h); 2.57 µM with U87-MG; above 10 µM in the assay on MDA-MB-231; above 10 µM on PLK1 T210D (h); 7.59 µM with A2780.

The values above are taken from patent US8609836B2, “4-aryl-2-anilino-pyrimidines” (Janssen Pharmaceutica NV, priority 2008, dated 2013).
